The source of these data is patent US8946431B2, “2-(substituted ethynyl)quinoline derivatives as mGLUr5 antagonists” (Korea Institute of Science and Technology, priority 2013, dated 2015).

Data set [1] concerns the target T1, mGluR5 (Homo sapiens, UniProt P41594).
T1 construct: host or cells: HEK293 (human embryonic kidney) cells stably expressing m-GluR5
The data set is described as follows: Assay for m-GluR5 activity using FDSS6000 (calcium mobilization by L-glutamate in mGluR5/HEK293 cells). The conditions noted are these: L-glutamate 10 uM, HEK cells expressing m-GluR5; for inhibition at 1 µM / inhibition at 10 µM: HEK293, read-out: % Inhibition rate (mGluR5). The data set is classed as cell-based. As to the method:
Inhibitory activity (%) of the compound represented by Formula 1 on calcium mobilization developed at a high concentration of glutamate in mGluR5/HEK293 cells was measured by using a high throughput FDSS6000.
After HEK cells stably expressing m-GluR5 (Human embryonic kidney cell line; m-GluR5: Yonsei University) were prepared at a density of 4×10^4/Ml per well, aliquots of 100 μl from the cell suspension were distributed evenly into a 96-well plate and incubated for 18 hr at 37° C., 5% CO2. The well plate was washed with a HBSS buffer to remove the culture medium, and reacted with a HBSS buffer containing a Ca^2+ fluorescent dye (FLIPR Calcium 5 assay kit: Molecular Devices) for 30 min at 37° C., 5% CO2, thereby labeling with the fluorescent dye. Separately from the 96-well plate including the cells, another 96-well plate including L-glutamate (final concentration: 10 uM) capable of activating m-GluR5 and a blacking agent was prepared. Since most of cell-based HTS devices are equipped with a liquid application system for injection of a drug, but have no liquid sucking system, the blocking agent to be tested and L-glutamate were respectively provided at a 6-fold higher concentration in a HBSS buffer at the amount of 25 μl, diluted by six-times at the final cell plate volume of 150 μl, and then used in this assay. Briefly, the FDSS6000 assay was carried out by recording a reference level of 20 sec, pre-treating with a blocking agent for 75 sec, and then measuring the change in intracellular calcium level depending on the administration of L-glutamate. After the area of a 480/520 ratio value in a control without treatment of a test drug was set to 100%, an inhibitory effect of the test drug was calculated as a percentage (%) thereon.
For accurate calcium imaging, the light source of 4 xenon lamps in FDSS6000 were radiated to selectively expose the cells to the excitation wavelength (480 nm) by a computer-controlled filter wheel. Data were obtained at intervals of 1.23 sec. The emitter fluorescence light inflowed through a 520 nm long-pass filter was obtained as an average 480/520 ratio value for each well in the 96-wells by using a CCD camera and a digital fluorescence analyzer in FDSS6000. All image data and analyses were obtained by using a FDSS6000-exclusive program from Hamamatsu Photonics.
A general note: Calcium assays in cells follow changes in intracellular calcium, usually with a dye or a luminescent sensor.

Data set [2] can be described thus: HLM (human liver microsomal) stability. The data set is classed as in vitro ADME. The conditions noted are these: human liver microsomes. For orientation: Liver microsomes are a subcellular fraction often used to study metabolism.
In data set [3] the target is CYP2D6 (Homo sapiens, UniProt P10635). The data set is described as follows: CYP inhibitory rate, CYP2D6. The data set is classed as in vitro ADME.
For data set [4], the target named is CYP2C9 (Homo sapiens, UniProt P11712). The data set is described as follows: CYP inhibitory rate, CYP2C9. The data set is classed as in vitro ADME.
Data set [5] deals with CYP3A4 (Homo sapiens, UniProt P08684). In words: CYP inhibitory rate, CYP3A4. The data set is classed as in vitro ADME.

As a reminder, the inhibition is the relative decrease from the control value, in per cent.

T1 sequence (P41594 21-1212): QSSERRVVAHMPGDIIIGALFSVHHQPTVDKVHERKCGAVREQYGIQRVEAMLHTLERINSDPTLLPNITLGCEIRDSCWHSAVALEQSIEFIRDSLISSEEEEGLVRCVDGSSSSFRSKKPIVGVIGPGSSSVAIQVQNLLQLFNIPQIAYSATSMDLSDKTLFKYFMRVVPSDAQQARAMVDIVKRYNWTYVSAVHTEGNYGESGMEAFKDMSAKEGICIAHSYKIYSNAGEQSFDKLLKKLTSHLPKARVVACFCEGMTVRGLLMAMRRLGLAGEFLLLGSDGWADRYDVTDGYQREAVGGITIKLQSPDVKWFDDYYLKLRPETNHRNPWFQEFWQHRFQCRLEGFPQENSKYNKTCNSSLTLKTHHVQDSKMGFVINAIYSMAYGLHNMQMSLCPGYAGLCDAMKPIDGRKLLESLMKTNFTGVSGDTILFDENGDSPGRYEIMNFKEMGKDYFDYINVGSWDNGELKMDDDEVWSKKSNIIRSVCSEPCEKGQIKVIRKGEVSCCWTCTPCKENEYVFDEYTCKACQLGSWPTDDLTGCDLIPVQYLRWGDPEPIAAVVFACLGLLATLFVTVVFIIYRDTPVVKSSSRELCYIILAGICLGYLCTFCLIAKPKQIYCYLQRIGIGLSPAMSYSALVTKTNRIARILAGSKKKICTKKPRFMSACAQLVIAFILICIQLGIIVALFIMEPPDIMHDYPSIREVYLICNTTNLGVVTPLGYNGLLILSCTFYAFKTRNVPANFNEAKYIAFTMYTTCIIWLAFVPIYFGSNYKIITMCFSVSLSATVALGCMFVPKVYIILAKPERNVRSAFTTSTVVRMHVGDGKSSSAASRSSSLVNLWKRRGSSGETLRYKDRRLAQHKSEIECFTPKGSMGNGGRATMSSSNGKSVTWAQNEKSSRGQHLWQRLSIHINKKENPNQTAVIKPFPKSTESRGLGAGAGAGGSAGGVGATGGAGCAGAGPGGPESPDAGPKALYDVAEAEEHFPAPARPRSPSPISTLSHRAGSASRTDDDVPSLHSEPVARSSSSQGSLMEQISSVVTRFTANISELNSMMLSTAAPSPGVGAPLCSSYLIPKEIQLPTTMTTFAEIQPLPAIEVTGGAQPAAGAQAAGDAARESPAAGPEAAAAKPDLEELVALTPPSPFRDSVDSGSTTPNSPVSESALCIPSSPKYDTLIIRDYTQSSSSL
Chain of CYP3A4 (P08684 whole entry): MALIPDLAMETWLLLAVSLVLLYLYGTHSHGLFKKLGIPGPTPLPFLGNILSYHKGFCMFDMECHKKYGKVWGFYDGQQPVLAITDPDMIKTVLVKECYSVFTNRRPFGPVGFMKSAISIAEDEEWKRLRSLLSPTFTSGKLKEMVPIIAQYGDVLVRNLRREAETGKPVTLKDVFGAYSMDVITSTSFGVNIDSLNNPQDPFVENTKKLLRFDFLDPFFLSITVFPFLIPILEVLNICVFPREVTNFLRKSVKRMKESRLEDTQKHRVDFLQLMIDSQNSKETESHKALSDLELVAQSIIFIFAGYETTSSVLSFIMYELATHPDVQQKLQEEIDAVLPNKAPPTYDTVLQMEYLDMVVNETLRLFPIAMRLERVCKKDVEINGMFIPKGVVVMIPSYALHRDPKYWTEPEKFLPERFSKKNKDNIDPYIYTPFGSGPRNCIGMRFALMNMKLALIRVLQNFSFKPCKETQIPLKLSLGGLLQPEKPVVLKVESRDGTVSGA
Chain of CYP2C9 (P11712 whole entry): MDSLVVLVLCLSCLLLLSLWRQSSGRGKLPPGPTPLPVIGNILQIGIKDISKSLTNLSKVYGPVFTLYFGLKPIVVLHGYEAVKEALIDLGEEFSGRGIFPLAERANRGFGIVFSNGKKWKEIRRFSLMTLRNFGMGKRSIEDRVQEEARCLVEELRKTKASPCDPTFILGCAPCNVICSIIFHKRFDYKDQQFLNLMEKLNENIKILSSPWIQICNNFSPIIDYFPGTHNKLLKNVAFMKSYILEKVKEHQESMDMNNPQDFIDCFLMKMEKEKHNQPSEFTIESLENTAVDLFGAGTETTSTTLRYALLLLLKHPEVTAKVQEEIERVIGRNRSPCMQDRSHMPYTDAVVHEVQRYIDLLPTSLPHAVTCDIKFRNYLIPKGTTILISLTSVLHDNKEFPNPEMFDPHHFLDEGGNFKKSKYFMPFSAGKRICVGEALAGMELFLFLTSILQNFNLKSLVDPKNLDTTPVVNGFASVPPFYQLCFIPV
Chain of CYP2D6 (P10635 whole entry): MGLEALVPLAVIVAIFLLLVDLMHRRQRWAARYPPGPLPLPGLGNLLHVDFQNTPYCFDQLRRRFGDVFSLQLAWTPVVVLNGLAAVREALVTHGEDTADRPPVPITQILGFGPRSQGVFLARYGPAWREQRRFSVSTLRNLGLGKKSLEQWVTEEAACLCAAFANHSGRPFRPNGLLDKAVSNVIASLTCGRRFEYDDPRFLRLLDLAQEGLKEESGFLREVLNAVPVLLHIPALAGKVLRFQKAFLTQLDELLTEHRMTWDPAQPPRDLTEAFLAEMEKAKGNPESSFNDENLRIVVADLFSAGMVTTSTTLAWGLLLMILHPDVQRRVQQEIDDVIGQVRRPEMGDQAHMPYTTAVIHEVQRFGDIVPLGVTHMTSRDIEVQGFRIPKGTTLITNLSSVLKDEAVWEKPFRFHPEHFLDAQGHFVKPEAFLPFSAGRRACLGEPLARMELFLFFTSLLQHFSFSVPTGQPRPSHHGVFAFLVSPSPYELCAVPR

With `C(#Cc1ccc2ccccc2n1)c1ccccc1` [Example 11, 2-(Phenylethynyl)quinoline], in data set [1] (1 μM compound), the inhibition at 1 µM turned out to be 35.9%. The inhibition at 10 µM in data set [1] (10 μM compound) stood at 67.7%.

With `Clc1cccc2nc(C#Cc3ccccn3)ccc12` [Example 12, 5-Chloro-2-(pyridine-2-ylethynyl)quinoline], the inhibition at 1 µM in data set [1] (1 μM compound) came out at 31%. Also, the inhibition at 10 µM in data set [1] (10 μM compound) is 64.3%.

For the compound `FC(F)(F)c1cccnc1C#Cc1ccc2ccccc2n1` [Example 13, 2-((3-(Trifluoromethyl)pyridine-2-yl)ethynyl)quinoline], in data set [1] (1 μM compound), the inhibition at 1 µM stood at 9.49%. Moreover, in data set [1] (10 μM compound), the inhibition at 10 µM came to 16.4%.

In the case of `COc1cccc2nc(C#Cc3ccccc3)ccc12` [Example 14, 5-Methoxy-2-(phenylethynyl)quinoline], in data set [1] (1 μM compound), the inhibition at 1 µM was 63.6%. The inhibition at 10 µM in data set [1] (10 μM compound) is 68%. Further, in data set [2], the “HLM % remaining after 30 min” value is listed as under 1%. Moreover, in data set [3], the “CYP (% remaining @ 10 μM) CYP2D6” value is listed as over 99%. In addition, the “CYP (% remaining @ 10 μM) CYP2C9” value in data set [4] was determined as 55%. Besides, the “CYP (% remaining @ 10 μM) CYP3A4” value in data set [5] came to 50%.

As for `CC(C)(C)C(=O)Oc1cccc2nc(C#Cc3ccccc3)ccc12` [Example 15, 2-(Phenylethynyl)quinoline-5-ylpivalate], the “% Inhibition rate (mGluR5)” value in data set [1] (1 μM compound) came out at 24.03%; in data set [1] (10 μM compound), 23.77%.

Regarding `Oc1cccc2nc(C#Cc3ccccc3)ccc12` [Example 16, 2-(Phenylethynyl)quinoline-5-ol], the inhibition at 1 µM in data set [1] (1 μM compound) came out at 18%. Also, in data set [1] (10 μM compound), the inhibition at 10 µM was 24.3%.

For `Clc1cccc2nc(C#Cc3ccccc3)ccc12` [Example 17, 5-Chloro-2-(phenylethynyl)quinoline], in data set [1] (1 μM compound), the inhibition at 1 µM worked out at 11.7%. Besides, in data set [1] (10 μM compound), the inhibition at 10 µM amounted to 8.02%.

As to `Brc1cccc2nc(C#Cc3ccccc3)ccc12` [Example 18, 5-Bromo-2-(phenylethynyl)quinoline], in data set [1] (1 μM compound), the inhibition at 1 µM came to 21.1%. Also, the inhibition at 10 µM in data set [1] (10 μM compound) is 20.7%.

Consider `C(#Cc1ccc2ccccc2n1)c1cccnc1` [Example 19, 2-(Pyridine-3-ylethynyl)quinoline], for which, in data set [1] (1 μM compound), the inhibition at 1 µM is 43.9%. Besides, the inhibition at 10 µM in data set [1] (10 μM compound) was found to be 65.8%.

Consider `COc1cccc2nc(C#Cc3cccnc3)ccc12` [Example 20, 5-Methoxy-2-(pyridine-3-ylethynyl)quinoline], for which the inhibition at 1 µM in data set [1] (1 μM compound) was found to be 67.7%. Also, in data set [1] (10 μM compound), the inhibition at 10 µM was found to be 67.7%.

For the compound `CCOc1cccc2nc(C#Cc3cccnc3)ccc12` [Example 21, 5-Ethoxy-2-(pyridine-3-ylethynyl)quinoline], in data set [1] (1 μM compound), the inhibition at 1 µM amounted to 47.2%. Further, the inhibition at 10 µM in data set [1] (10 μM compound) was found to be 66.6%.

Regarding `CC(C)(C)C(=O)Oc1cccc2nc(C#Cc3cccnc3)ccc12` [Example 22, 2-(Pyridine-3-ylethynyl)quinoline-5-ylpivalate], the results for the “% Inhibition rate (mGluR5)” value in data set [1] (1 μM compound) and in data set [1] (10 μM compound) were 10.56% and 28.5%, respectively.

For the compound `Oc1cccc2nc(C#Cc3cccnc3)ccc12` [Example 23, 2-(Pyridine-3-ylethynyl)quinoline-5-ol], in data set [1] (1 μM compound), the inhibition at 1 µM came to 25.2%. Besides, the inhibition at 10 µM in data set [1] (10 μM compound) was 17.6%.

For `Clc1cccc2nc(C#Cc3cccnc3)ccc12` [Example 24, 5-Chloro-2-(pyridine-3-ylethynyl)quinoline], in data set [1] (1 μM compound), the inhibition at 1 µM was found to be 11.2%. Further, the inhibition at 10 µM in data set [1] (10 μM compound) stood at 28.4%.

For the compound `Brc1cccc2nc(C#Cc3cccnc3)ccc12` [Example 25, 5-Bromo-2-(pyridine-3-ylethynyl)quinoline], the inhibition at 1 µM in data set [1] (1 μM compound) was determined as 22%. Moreover, in data set [1] (10 μM compound), the inhibition at 10 µM is 40.1%.

With `CC(C)(C)C(=O)Oc1cccc2nc(C#Cc3ccccn3)ccc12` [Example 27, 2-(Pyridine-2-ylethynyl)quinoline-5-ylpivalate], the “% Inhibition rate (mGluR5)” value in data set [1] (1 μM compound) was found to be 17.12%; in data set [1] (10 μM compound) it was 62.44%.

`Oc1cccc2nc(C#Cc3ccccn3)ccc12` [Example 28, 2-(Pyridine-2-ylethynyl)quinoline-5-ol]: the inhibition at 1 µM in data set [1] (1 μM compound) was 17.4%. In data set [1] (10 μM compound), the inhibition at 10 µM worked out at 22.1%.

As for `Brc1cccc2nc(C#Cc3ccccn3)ccc12` [Example 29, 5-Bromo-2-(pyridine-2-ylethynyl)quinoline], the inhibition at 1 µM in data set [1] (1 μM compound) came to 56.7%. The inhibition at 10 µM in data set [1] (10 μM compound) was 77.5%.

As to `Fc1cccnc1C#Cc1ccc2ccccc2n1` [Example 30, 2-((3-Fluoropyridine-2-yl)ethynyl)quinoline], in data set [1] (1 μM compound), the inhibition at 1 µM came out at 31.3%. Besides, the inhibition at 10 µM in data set [1] (10 μM compound) is 55.2%.

Turning to `Cc1cccnc1C#Cc1ccc2ccccc2n1` [Example 31, 2-((3-Methylpyridine-2-yl)ethynyl)quinoline], the inhibition at 1 µM in data set [1] (1 μM compound) was 18.9%. The inhibition at 10 µM in data set [1] (10 μM compound) was 40.1%.

For the compound `FC(F)(F)c1ccnc(C#Cc2ccc3ccccc3n2)c1` [Example 32, 2-((4-(Trifluoromethyl)pyridine-2-yl)ethynyl)quinoline], the inhibition at 1 µM in data set [1] (1 μM compound) came to 23.3%. The inhibition at 10 µM in data set [1] (10 μM compound) was found to be 58%.

As to `N#Cc1ccnc(C#Cc2ccc3ccccc3n2)c1` [Example 33, 2-(Quinoline-2-ylethynyl)isonicotinonitrile], the inhibition at 1 µM in data set [1] (1 μM compound) amounted to 35.2%. Further, the inhibition at 10 µM in data set [1] (10 μM compound) was found to be 76.1%.

In the case of `Cc1ccnc(C#Cc2ccc3ccccc3n2)c1` [Example 34, 2-((4-Methylpyridine-2-yl)ethynyl)quinoline], the inhibition at 1 µM in data set [1] (1 μM compound) worked out at 21.9%. Also, in data set [1] (10 μM compound), the inhibition at 10 µM was found to be 66.5%.

Regarding `FC(F)(F)c1ccc(C#Cc2ccc3ccccc3n2)nc1` [Example 35, 2-((5-(Trifluoromethyl)pyridine-2-yl)ethynyl)quinoline], the inhibition at 1 µM in data set [1] (1 μM compound) came out at 13%. The inhibition at 10 µM in data set [1] (10 μM compound) was found to be 50.7%.

Take `Fc1ccc(C#Cc2ccc3ccccc3n2)nc1` [Example 36, 2-((5-Fluoropyridine-2-yl)ethynyl)quinoline]: the inhibition at 1 µM in data set [1] (1 μM compound) is 33.9%. Moreover, the inhibition at 10 µM in data set [1] (10 μM compound) turned out to be 63.3%.

For `Cc1ccc(C#Cc2ccc3ccccc3n2)nc1` [Example 37, 2-((5-Methylpyridine-2-yl)ethynyl)quinoline], the inhibition at 1 µM in data set [1] (1 μM compound) amounted to 29%. Further, the inhibition at 10 µM in data set [1] (10 μM compound) worked out at 66.3%.

For the compound `FC(F)(F)c1cccc(C#Cc2ccc3ccccc3n2)n1` [Example 38, 2-((6-(Trifluoromethyl)pyridine-2-yl)ethynyl)quinoline], the inhibition at 1 µM in data set [1] (1 μM compound) was found to be 15.8%. Besides, in data set [1] (10 μM compound), the inhibition at 10 µM amounted to 28.7%.

On to `Fc1cccc(C#Cc2ccc3ccccc3n2)n1` [Example 40, 2-((6-Fluoropyridine-2-yl)ethynyl)quinoline], for which the inhibition at 1 µM in data set [1] (1 μM compound) amounted to 29.6%. Further, in data set [1] (10 μM compound), the inhibition at 10 µM stood at 46.9%.

As to `COc1cccc(C#Cc2ccc3ccccc3n2)n1` [Example 41, 2-((6-Methoxypyridine-2-yl)ethynyl)quinoline], the inhibition at 1 µM in data set [1] (1 μM compound) stood at 16.6%. Further, the inhibition at 10 µM in data set [1] (10 μM compound) turned out to be 48.6%.

Take `C(#Cc1ncccn1)c1ccc2ccccc2n1` [Example 42, 2-(Pyrimidine-2-ylethynyl)quinoline]: the inhibition at 1 µM in data set [1] (1 μM compound) was 17.1%. For the same compound, in data set [1] (10 μM compound), the inhibition at 10 µM amounted to 28.6%.

Regarding `FC(F)(F)c1ccnc(C#Cc2ccc3ccccc3n2)n1` [Example 43, 2-((4-(Trifluoromethyl)pyrimidine-2-yl)ethynyl)quinoline], in data set [1] (1 μM compound), the inhibition at 1 µM was found to be 17.3%. The inhibition at 10 µM in data set [1] (10 μM compound) came out at 15.9%.

Regarding `Fc1cnc(C#Cc2ccc3ccccc3n2)nc1` [Example 44, 2-((5-Fluoropyrimidine-2-yl)ethynyl)quinoline], the inhibition at 1 µM in data set [1] (1 μM compound) was found to be 16%. For the same compound, the inhibition at 10 µM in data set [1] (10 μM compound) was 15.6%.

Consider `C(#Cc1ccc2ccccc2n1)c1cncnc1` [Example 45, 2-(Pyrimidine-5-ylethynyl)quinoline], for which the inhibition at 1 µM in data set [1] (1 μM compound) turned out to be 13.6%. Also, the inhibition at 10 µM in data set [1] (10 μM compound) was determined as 22.4%.
